Assay [1] concerns the target T1, SpeG (Escherichia coli, UniProt P0A951).
T1 construct: his-tagged SpeG from pKK223.3, expressed in E. coli DJ624 delta-ara
T1 sequence (P0A951 2-186): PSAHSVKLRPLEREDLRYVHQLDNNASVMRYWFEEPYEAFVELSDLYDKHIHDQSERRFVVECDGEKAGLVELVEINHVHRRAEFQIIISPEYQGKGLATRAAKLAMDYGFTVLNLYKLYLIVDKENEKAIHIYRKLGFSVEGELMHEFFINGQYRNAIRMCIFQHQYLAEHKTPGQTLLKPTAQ
The assay can be described thus: DTNB acetylation assay. It is filed as biochemical. As to conditions: acetyl-CoA co-substrate 0.5 mM; substrate 5 mM; pH 8.0; 30 °C.

For assay [2], the target named is his-Dpa (A. baumannii diaminopropane acetyltransferase Dpa, wild type) (Acinetobacter baumannii). The assay can be described thus: SEC; analytic SEC on Superdex75 increase, 50 mM Tris-HCl pH 8, 250 mM NaCl; 500 μL of 20 μM protein injected; where indicated pre-incubated with 5-fold molar excess of acCoA and/or 1,3-DAP. A general note: SEC sorts molecules by how far they enter the pores of the column.

Assay [3] has the same target. Briefly: crystal structure; his-Dpa at 10 mg/ml crystallised with 0.1 mM acetyl-CoA; 0.2 M sodium acetate, 0.1 M Tris-HCl pH 8.5, 30% PEG 4000, 20 °C.
Assay [4] deals with his-Dpa_(Y128F) (catalytically impaired Dpa) (Acinetobacter baumannii). Briefly: crystal structure.
Assay [5] addresses T2, Dpa (Acinetobacter baumannii, UniProt V5VBK4).
T2 construct: gene ABR2091_2278; his-tagged Dpa from pKK223.3, expressed in E. coli DJ624 delta-ara; C-terminal beta-strand swapped dimer
The assay can be described thus: X-ray crystal structure. It is filed as binding. The note with it: crystallised with 0.1 mM acetyl-CoA, pH 8.5.

Regarding `NCCCCNCCCN` [spermidine], the DTNB acetylation assay entry in assay [1] is “SpeG acetylated the long polyamines Spermine and Spermidine”.
As a reminder, the stoichiometry N is the number of molecules, sites or subunits per partner or assembly. As to “his-Dpa (A. baumannii diaminopropane acetyltransferase Dpa, wild type) (enzyme)”, the stoichiometry N in assay [2] and in assay [3] was 2 in each case.
For the molecule `NCCCNCCCCNCCCN` [spermine], in assay [1], the DTNB acetylation assay entry was “SpeG acetylated the long polyamines Spermine and Spermidine”.
Molecule “his-Dpa_(Y128F) (catalytically impaired Dpa) (enzyme)” showed a stoichiometry N in assay [4] of 2.
On to `CC(=O)SCCNC(=O)CCNC(=O)[C@H](O)C(C)(C)COP(=O)(O)OP(=O)(O)OC[C@H]1O[C@@H](n2cnc3c(N)ncnc32)[C@H](O)[C@@H]1OP(=O)(O)O` [acetyl-CoA], for which the X-ray crystal structure result in assay [5] is given as “we determined the structure of Dpa bound to acCoA”.

Source of the values: PMC10267138, “A polyamine acetyltransferase regulates the motility and biofilm formation of Acinetobacter baumannii” (Nature Communications, 2023).
